How the values were obtained:
[1] = Brain-Blood Plasma Distribution In Vivo; set-up: species or system Sprague-Dawley rats; details: rat
Description: 5-Amino-anthra(9,1-cd)isothiazol-6-one was administered intravenously (10 mg/kg) into the veins of Sprague-Dawley rats. After 2 hr, blood samples were obtained from the animals and their vascular systems were perfused with approximately 100 mL of saline to rid their brains of blood. The brains were removed from the animals, weighed, and homogenized in a 50 mL conical tube containing 10 equivalents (w/v) of methanol/saline (1:1) using a Tissue Tearer (Fischer Scientific). The homogenized material was extracted by adding 600 μL of cold methanol to 250 μL of brain homogenate vortexed for 30 sec and subjected to centrifugation for 5 min. After centrifugation, 600 μL of the resulting supernatant was transferred to a clean tube and evaporated at room temperature under reduced pressure to provide a pellet. […] The brain homogenate analysis samples, plasma analysis samples, and standard analysis samples were analyzed and compared using HPLC by injecting 100 μL of a sample onto a 5 μm C-18 Luna column (4.6 mm×150 mm, commercially available from Phenomenex of Torrance, Calif.) and eluting at 1 mL/min with a linear gradient of 30% aqueous acetonitrile containing 0.1% trifluoroacetic acid to 90% aqueous acetonitrile containing 0.1% trifluoroacetic acid over 8 minutes and holding at 90% aqueous acetonitrile containing 0.1% trifluoroacetic acid for 3 min. with absorbance detection at 450 nm. […]

[2] = Solubility in aqueous media; assay type: physicochemical
[3] = system: rat ventral mesencephalan neurons; assay: [3H]Dopamine Cell Culture Assay (6-OHDA neurotoxicity); assay type: cell-based; details: 6-OHDA 30 μM, uptake 22 hrs after exposure
Description: Cultures of dopaminergic neurons were prepared according to a modification of the procedure described by Raymon and Leslie (J. Neurochem. 62:1015-1024, 1994). Time-mated pregnant rats were sacrificed on embyronic day 14-15 (crown rump length 11-12 mm) and the embryos removed by cesarean section. The ventral mesencephalon, containing the dopaminergic neurons, was dissected from each embryo. Tissue pieces from approximately 48 embryos were pooled and dissociated both enzymatically and mechanically. An aliquot from the resulting cell suspension was counted and the cells were plated in high glucose DMEM/F12 culture medium with 10% fetal bovine serum at a density of 1×10^5 cells/well of a Biocoat poly-D-lysine-coated 96-well plate. The day following plating was considered 1 day in vitro (DIV). Cells were maintained in a stable environment at 37° C., 95% humidity, and 5% CO2. A partial medium change was performed at 3 DIV. […]
[^3H]Dopamine uptake is used as a measure of the health and integrity of dopaminergic neurons in culture (Prochiantz et al., PNAS 76: 5387-5391, 1979). […] Briefly, cells treated with 6-OHDA in the presence and absence of 5-amino-anthra(9,1-cd)isothiazol-6-one were assessed in the uptake assay 22 hrs after exposure to 6-OHDA. […] Radioactivity was removed and the cultures were washed 3× with ice cold PBS. […]

What does the source list for `Nc1ccc2snc3c2c1C(=O)c1ccccc1-3` [5-amino-anthra(9,1-cd)isothiazol-6-one]?
brain-drug concentration ([1]; 10 mg/kg intravenously, 2 hr post-dose): approximately 65 nmole/g; blood-brain barrier crossing ([1]; following intravenous administration): crosses the blood-brain barrier to a significant extent; solubility in aqueous media [2]: limited solubility; protection of dopaminergic neurons ([3H]dopamine uptake) [3]: protects rat ventral mesencephalan neurons from the toxic effects of 6-OHDA

Reference: patent US20070270448A1, “Methods of Using and Compositions Comprising a Jnk Inhibitor for the Treatment and Management of Asbestos-Related Diseases and Disorders” (CELGENE CORPORATION, priority 2003, published 2007)
